Results from US5262537A, “Derivatives of 4,5,6,7-tetrahydroimidazo-[4,5-c]pyridinyl-6-carboxylic acid” (priority 1993, dated 1993).
Where a name gives a salt, the structure may show the parent alone. Read-outs that look alike come from different tables or passages of the source.

Assays:
[1] = molecular target: T1, 5-HT3 (Rattus norvegicus, UniProt P35563); assay: biochemical; format: binding, Male Sprague-Dawley rats
T1 sequence (P35563 24-483): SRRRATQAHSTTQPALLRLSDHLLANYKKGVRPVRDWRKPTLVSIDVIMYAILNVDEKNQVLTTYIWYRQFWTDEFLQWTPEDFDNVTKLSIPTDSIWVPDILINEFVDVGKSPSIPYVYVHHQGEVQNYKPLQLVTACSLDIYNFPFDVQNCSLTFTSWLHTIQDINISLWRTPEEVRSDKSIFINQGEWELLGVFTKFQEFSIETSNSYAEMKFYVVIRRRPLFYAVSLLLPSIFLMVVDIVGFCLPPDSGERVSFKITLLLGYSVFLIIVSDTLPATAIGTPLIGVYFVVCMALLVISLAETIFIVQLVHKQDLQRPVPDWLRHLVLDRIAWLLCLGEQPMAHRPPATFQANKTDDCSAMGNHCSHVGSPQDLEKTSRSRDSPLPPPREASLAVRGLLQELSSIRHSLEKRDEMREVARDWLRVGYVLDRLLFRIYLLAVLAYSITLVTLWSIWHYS
Description: A number of compounds in accordance with the present invention were tested for their 5-HT3 and D2 binding affinities in accord with the following procedures.
Male Sprague-Dawley rats (175-220 g) were sacrificed by decapitation and their brains removed rapidly. The entorhinal cortex was used for the 5-HT3 (5-hydroxytryptamine) binding assay and the remainder of the brain, minus the brain stem and cerebellum, was used for the D2 (dopamine) binding assay. The entorhinal cortex was harvested and prepared on the day of the assay.
The entorhinal cortex was homogenized in 20 volumes of cold 50 mM HEPES buffer, pH 7.4, while the remaining brain tissue was homogenized in 20 volumes of cold 50 mM Tris, pH 7.4. The homogenates were centrifuged at 4800×g for 15 minutes at 5° C. and the supernatants decanted. Pellets were resuspended in the original volume of HEPES or Tris. Homogenates were centrifuged and the supernatants decanted. Pellets were resuspended in the same volume of HEPES or Tris and incubated at 37° C. for 45 minutes to remove endogenous neurotransmitters. Homogenates were centrifuged and the supernatants were decanted. Pellets for D2 assays were stored at -50° C. until the day of the assay. The pellets for the 5-HT3 assay (entorhinal cortex) were resuspended in the appropriate amount of HEPES buffer and used promptly. Modifications of published assays for [^3 H]GR65630 (Kilpatrick et al., Nature: 330, 746-748 (1987)) and [^3 H]raclopride (Dewar et al., J. Pharmacol. Exp. Ther.: 250, 696-706 (1989) and Lidow et al., Proc. Natl. Acad. Sci. USA: 86, 6412-6416 (1989)) were used for the 5-HT3 and D2 binding assays, respectively.
Briefly, 0.25 ml of homogenate was incubated with either 0.2 nM of [^3 H]GR65630 or 1.0 nM of [^3 H]raclopride in a final volume of 0.5 ml. D2 binding also requires sodium chloride and potassium chloride (120 mM and 5 mM, final concentration, respectively). In the 5-HT3 assay, non-specific binding was defined in the presence of 100 uM quipazine. In the D2 assay, non-specific binding was defined in the presence of 100 uM of (+/-) sulpiride. Both assays were incubated at room temperature; [^3 H]GR65630 for 40 minutes and [^3 H]raclopride for 60 minutes. Test compounds (0.1 ml) were added to incubates where appropriate. Bound ligand was separated from free ligand by filtration and quantified using liquid scintillation spectrophotometry. IC50 values were calculate for all test compounds.

[2] = tested on: Ferret; assay: Cisplatin Ferret Assay--Antiemetic Screening; format: in vivo, Male ferrets; conditions: for ED50 / inhibition in vivo at 0.1 mg/kg: Mustela putorius, iv, 4 h; for ED50: read-out: Ferret Cisplatin Test ED50; for inhibition in vivo at 0.1 mg/kg: read-out: Ferret Cisplatin Test % Prot, 0.1 mg/Kg
Description: Male ferrets (castrated, descented, 1-2 kg) were purchased from Triple F Farms, Syre, Pa. Ferrets were housed four in a cage with a 12 hour light cycle and were fed ad libitum with Ralston Purina Cat Chow. Each ferret was used unfasted for the assay after a minimum of a 24 hour acclimation time in animal facility.
Ferret Preparation. Each ferret was anesthetized with 5% isoflurane-O2in a 20 gallon aquarium for 2 to 5 minutes. After removal of the anesthetic gas, the animals were removed and weighed. Injections were made into the dorsal front paw vein using a tourniquet and a 1 ml tuberculin syringe with a 25 g needle while the animal was maintained under anesthesia using a small nose cone delivering 5% isoflurane-O2. Cisplatin was injected using a 3 ml or 5 ml syringe in the opposite paw from the study compound or saline. Recovery time from anaesthesia was 5 to 8 minutes.
Drug Preparation. Cisplatin bulk powder was weighed and dissolved in normal saline at 75° C. to provide a 5 mg/ml solution (90 mg was placed in a scintillation vial and qs with 18 ml saline). The solution was stirred and maintained at 40° C. until ready for use. The study drug was weighed and dissolved in normal saline at room temperature to provide a 1 mg/ml solution (10 mg was placed in a scintillation vial and qs with 10 ml saline). Suspensions were heated to 40° C. to bring the study compound into solution. Compounds not soluble under these conditions were not assayed.
Assay. Cisplatin was injected i.v. at 10 mg/kg into twelve anesthetized ferrets daily at time zero. Normal saline (0.5 ml) or the study compound (0.1 or 1.0 mg/kg) was injected 30 minutes later in groups of three anesthetized ferrets. Order of treatment and treatment dose was selected at random, with the remaining treatment dose assayed in the next experiment.
Experimental Observations and Data Collection. Ferrets were viewed individually. The time and number of emetic episodes were recorded for four hours. Zero time was equivalent to the time of cisplatin injection. […] Retches were recorded but not counted. The total number of episodes for each of the four groups of three ferrets (+/-S.E.) was averaged and the effect of treatment (% protection) was calculated as the percent reduction of emetic episodes compared to controls. [formula]
Percent protection values were determined from experimental controls. Experimental controls were those obtained from the day of the experiment. Onset times of the first episode were averaged and recorded for each group. Prodromal signs (lip licking, slit eyes, head shaking, salivation, scratching, clawing, walking backward, sedation, urination, and defecation) were also averaged and recorded.

[3] = 0.2 nM [3H]GR65630, rat entorhinal cortex, 40 minutes, room temperature, read-out: 5-HT3 IC50
[4] = 0.1 mg/kg i.v., 30 minutes after cisplatin 10 mg/kg i.v., percent reduction of emetic episodes vs controls, four hours
[5] = i.v., 30 minutes after cisplatin 10 mg/kg i.v., emetic episodes over four hours

Row | Structure (SMILES) | IC50 [1, 3] | Ferret Cisplatin Test % Prot, 0.1 mg/Kg [2, 4] | ED50 [2, 5] | inhibition in vivo at 0.1 mg/kg [2, 4] | inhibition in vivo at 0.1 mg/kg [2] | ED50 [2] | IC50 [1]
1 | COc1ccccc1NC(=O)[C@@H]1Cc2nc[nH]c2C(C)(C)N1 [Compd 20] | 21.7 nM | 72% | 0.008 mg/kg |  |  |  | 
2 | CN1Cc2nc[nH]c2C[C@@H]1C(=O)Nc1cccc2nsnc12 [Compd 21] | 1.98 nM |  | 0.39 mg/kg | 24% |  |  | 
3 | CN1Cc2nc[nH]c2C[C@H]1C(=O)Nc1nc2ccccc2s1 [Compd 22] | 37.2 nM |  |  | 14% |  |  | 
4 | CN1Cc2nc[nH]c2C[C@H]1C(=O)Nc1cccc2nsnc12 [Compd 23] | 15.9 nM |  | 0.016 mg/kg | 100% |  |  | 
5 | CN1[C@H](C(=O)Nc2ccccc2O)Cc2[nH]cnc2C1(C)C [Compd 24] | 47.2 nM |  | 0.025 mg/kg | 48% |  |  | 
6 | COc1ccccc1NC(=O)[C@@H]1Cc2[nH]cnc2C(C)(C)N1C [Compd 25] | 14.1 nM |  | 0.026 mg/kg | 93% |  |  | 
7 | CN1Cc2nc[nH]c2C[C@H]1C(=O)Nc1ccccc1NC(=O)c1ccccc1 [Compd 26] | 289 nM |  |  | 0% |  |  | 
8 | CN1Cc2nc[nH]c2C[C@H]1C(=O)Nc1ccccc1Oc1ccccc1.Cl.Cl [Compd 27, (S)-5-methyl-6-(2-phenoxyphenylaminocarbonyl)-4,5,6,7-tetrahydroimidazo[4,5-c]pyridine dihydrochloride] | 6.92 nM |  | 0.031 mg/kg | 72% |  |  | 
9 | CN1Cc2nc[nH]c2C[C@H]1C(=O)c1cccs1 [Compd 28] | 648 nM |  |  |  | 0% |  | 
10 | CN1Cc2nc[nH]c2C[C@H]1C(=O)Nc1ccccc1F [Compd 29] | 335 nM |  | 0.024 mg/kg | 88% |  |  | 
11 | COc1ccc(OC)c(NC(=O)[C@@H]2Cc3nc[nH]c3CN2C)c1 [Compd 30, (S)-6-(2,5-dimethoxyphenylaminocarbonyl)-5-methyl-4,5,6,7-tetrahydoimidazo[4,5-c]pyridine dihydrochloride] | 69.7 nM |  |  | 5% |  |  | 
12 | CN1Cc2nc[nH]c2C[C@H]1C(=O)Nc1cccc(F)c1F [Compd 31] | 644 nM |  | 0.068 mg/kg | 91% |  |  | 
13 | CN1Cc2nc[nH]c2C[C@H]1C(=O)c1cc2ccccc2s1 [Compd 32, 6-(2-benzo[b]thiophenylcarbonyl)-5-methyl-4,5,6,7-tetrahydroimidazo[4,5-c]pyridine] | 234 nM |  |  |  | 41% | 0.11 mg/kg | 
14 | CN1Cc2nc[nH]c2C[C@H]1C(=O)c1cc2ccccc2o1 [Compd 33, 6-(2-benzo[b]furanylcarbonyl)-5-methyl-4,5,6,7-tetrahydroimidazo[4,5-c]pyridine] | 2020 nM |  |  |  | 31% | 0.43 mg/kg | 
15 | CN1Cc2nc[nH]c2C[C@H]1C(=O)Nc1c(F)cccc1F [Compd 34] | 612 nM |  | 0.15 mg/kg | 59% |  |  | 
16 | CN1Cc2nc[nH]c2C[C@H]1C(=O)Nc1ccc(F)c(F)c1F [Compd 35] | 160 nM |  | 0.19 mg/kg | 20% |  |  | 
17 | CN1Cc2nc[nH]c2C[C@H]1C(=O)Nc1cccc2c1NCCC2 [Compd 36] | 103 nM |  | 0.081 mg/kg | 70% |  |  | 
18 | CN1Cc2nc[nH]c2C[C@H]1C(=O)Nc1ccccc1Cl [Compd 37] | 26.7 nM |  | 0.065 mg/kg | 42% |  |  | 
19 | CN1Cc2nc[nH]c2C[C@H]1C(=O)c1ccccc1 [Compd 38] |  |  |  |  | 30% |  | 48.4 nM
20 | CC(=O)c1ccccc1NC(=O)[C@@H]1Cc2[nH]cnc2CN1C [Compd 39, (S)-6-(2-acetylphenylaminocarbonyl)-5-methyl-4,5,6,7-tetrahydroimidazo[4,5-c]pyridine] | 4.18 nM |  | 0.045 mg/kg | 65% |  |  | 
21 | CN1Cc2nc[nH]c2C[C@H]1C(=O)Nc1cc(O)ccc1O [Compd 40, (S)-6-(2,5-dihydroxyphenylaminocarbonyl)-5-methyl-4,5,6,7-tetrahydroimidazo[4,5-c]pyridine dihydrobromide] | 45.9 nM |  |  | 0% |  |  | 
22 | COc1ccc2oc(C(=O)[C@@H]3Cc4[nH]cnc4CN3C)cc2c1 [Compd 41] | 12900 nM |  |  |  | 9% |  | 
23 | CN1Cc2nc[nH]c2C[C@H]1C(=O)Nc1ccccc1N [Compd 42] | 3490 nM |  | 0.23 mg/kg | 39% |  |  | 
24 | COc1ccccc1C(=O)[C@@H]1Cc2[nH]cnc2CN1C [Compd 43] |  |  |  |  | 41% |  | 2380 nM
25 | CN1Cc2nc[nH]c2C[C@H]1C(=O)Nc1ccccc1Oc1cccc(C(F)(F)F)c1 [Compd 44] | 9.52 nM |  | 0.26 mg/kg | 1% |  |  | 
26 | CN1Cc2nc[nH]c2C[C@H]1C(=O)Nc1ccccc1Oc1cccc(F)c1 [Compd 45] | 7.09 nM |  | 0.042 mg/kg | 67% |  |  | 
27 | CC(=O)c1ccccc1NC(=O)[C@@H]1Cc2[nH]cnc2C(C)(C)N1 [Compd 48] | 158 nM |  | 0.0098 mg/kg | 100% |  |  | 
28 | CC1(C)N[C@H](C(=O)Nc2ccccc2Oc2ccccc2)Cc2[nH]cnc21 [Compd 49, (S)-6-(2-phenoxy-phenylaminocarbonyl)-4,4-dimethyl-4,5,6,7-tetrahydroimidazo[4,5-c]pyridine] | 8.55 nM |  | 0.022 mg/kg | 76% |  |  | 
29 | CCN(CC)CCNC(=O)c1cc(Cl)c(N)cc1OC [Metaclopramide, reference compound] |  |  | 4.08 mg/kg | 17% |  |  | 514 nM
